Reference: publication PMC10244169, “Psychedelics promote plasticity by directly binding to BDNF receptor TrkB” (Nature Neuroscience, 2023)

Test system: TrkB pY816
Assay: pY816 in PFC and hippocampus after single LSD injection (ELISA, immunoblot)
Format: in vivo
Conditions: mouse brain samples, single administration
Description: The phosphorylation of TrkB (pY816) and interaction with PLCγ1 were assessed by enzyme-linked immunosorbent assay (ELISA) as previously described[11],[80],[81] with minor modifications. Briefly, white 96-well plates (PerkinElmer, OptiPlate 96F-HB) were precoated with goat anti-TrkB (R&D systems, AF1494; 1:500, overnight, 4 °C) antibody in carbonate buffer (pH 9.8) and blocked with 3% BSA in PBS with 0.1% Tween-20 (PBS-T) for 2 h at room temperature. […] Samples were incubated overnight at 4 °C, and 24 h later plates were washed with PBS-T and incubated with either rabbit anti-phospho-TrkB(Tyr816) (Cell Signaling Technology, 4168S; 1:2,000), rabbit anti-PLCγ1 (Cell Signaling Technologies, 5690S; 1:2,000) or rabbit anti-Trk (Cell Signaling Technologies, 92991; 1:2,000) antibodies overnight at 4 °C. After washing with PBS-T, plates were incubated with HRP-conjugated goat anti-rabbit (Bio-Rad, 170–5046; 1:5,000, 1 h, room temperature) antibody, followed by more washing with PBS-T. Finally, the chemiluminescent signal was read after brief incubation with Pierce ECL substrate (Thermo Fisher Scientific, 32106). Luminescence from blank wells that contained all reagents but the sample lysates was used to determine background signal. […]

SMILES: CCN(CC)C(=O)C1C=C2c3cccc4[nH]cc(c34)CC2N(C)C1 (stereo not shown) [LSD, lysergic acid diethylamide]
- TrkB phosphorylation (pY816): increases phosphorylation of TrkB tyrosine 816 (pY816)
